“And” between values parts separate entries of the source, which are not always exact repeats. Identical values can stand only once.

Data on 33 substances can be found in US9796777B2, “Methods of treating malignant tumors” (Canimguide Therapeutics AB, priority 2007, dated 2017).

The subject of test [1] is cell surface receptors of immune cells (ACS). Nature of the test: Adsorption of enzyme fragmented dHSA on affinity column with biotinylated cell surface proteins (ACS), MALDI-TOF ms. The format is binding, human. Conditions: for Per cent adsobed: Table 6 A, molecular weight 700-3600 Da. The procedure:
Based on the observation that immunoregulatory peptide sequences are present in serum albumin, there is the possibility that other sequences than the epitope of mAb A have immunoregulatory function. Therefore an artificial cell surface (ACS) was prepared as described in materials and methods. […]
To remove unfragmented albumin and enzyme, the sample was ultra filtered through an Amicon Ultra 4 (mw cut-off of 5000) or a Centriplus (mw cut-off 10000) centrifugal filter (Millipore AB, Solna, Sweden). The filtrate, containing fragmented dHSA without enzymes, was collected and diluted with PBS with Ca and Mg (GIBCO).
Buffy coats generated from 450 ml blood each was collected from 4 healthy donors. Erythrocytes were removed by sedimentation on 2% dextran T500 solution (Amersham Pharmacia Biotech AB, Uppsala Sweden) in 0.9% NaCl. Mononuclear cells (PBMC) were then isolated by Ficoll-Paque Plus (GE Healthcare Bioscience AB Sweden) density gradient centrifugation. The PBMC were then suspended in phosphate buffered saline (PBS) containing Ca and Mg (GIBCO) at a concentration of 10×10^6/ml. EZ Link Sulfo-NHS-biotin (Pierce USA) was added at a final concentration of 0.2 mg/ml and the mixture incubated on a shaker at room temperature for 10 min. Excess biotin was then removed by washing the PBMC in PBS. Biotinylated PBMC were then lysed by adding 1.0 ml ice-cold lysing buffer (50 mM Tris-HCL, pH 7.5, with 0.15 M NaCl, 5 mM MgCl2 containing 100 mM Octyl glucoside and 1 mM Phenylmethylsulfonyl fluoride) per 2×10^7 pelleted cells with gentle shaking, then incubated for 30 min. on ice. Debris was removed by centrifugation at 5000×g at 4° C. for 10 min and the supernatants was collected and pooled from all four donors. The lysate was then stored at −70° C. in polypropylene plastic tubes.
This amount of lysate corresponds to 36×10^7 mononuclear cells. It was added to a 1 ml Hitrap Streptavidin HP affinity column (Amersham Biosciences). To block possible remaining free biotin, 5 ml of 0.1 M glycine (Sigma) was added to the column. Unsaturated streptavidin on the column was then reacted with 150 ug biotin (Sigma) in binding buffer. The column was carefully washed with PBS and stored in PBS with 0.1% NaN3 at 4° C. until use.
27 ml biotinylated cell lysate in binding buffer (corresponding to 54×10^7 mononuclear cells) was added to 1.5 ml washed Streptavidin Sepharose HP (Amersham Biosciences). To block possible remaining free biotin, 25 ml of 0.1 M glycine (Sigma) was added to the Streptavidin Sepharose. Unsaturated streptavidin was then reacted with 225 μg biotin (Sigma) in binding buffer. The Streptavidin Sepharose was carefully washed in PBS. One ml of the biotinylated cell lysate coupled Streptavidin Sepharose was then packed in an empty column (Tricorn Empty High Performance Column, Amersham Bioscience) and washed with phosphate buffered saline (PBS) containing Ca and Mg (GIBCO).
The flow-through was collected with consideration taken to void volume and dilution of adsorbed sample by collecting in small portions of 0.2 ml. Thirty ul of each sample, including a control sample that has not been adsorbed, were dried in a Speed-Vac centrifuge.
Dried samples were reconstituted in 10 ul of 0.1% TFA. Zip Tip pipette tips (Millipore, USA) containing C18 reversed-phase media were used for desalting reconstituted samples. […] For the analysis of samples in the mass range 1500-9000 Da, one μl of each Zip Tip eluted sample was mixed with 1 μl of sinapinic acid ([…]). […] Mass identity search of resulting spectra was performed in the SwissProt or NCBI databases using MS-Fit.

The subject of another test is PBMC. Briefly: LPS-induced IL-6 production by PBMC, effect of peptides. Format: cell-based, human. Conditions: PBMCs from one healthy control; lowest peptide concentration. The procedure: 100 μl of culture medium consisting of RPMI1640 supplemented with 200 IU/ml penicillin, 200 μg/ml streptomycin, 4 mM L-glutamine (Sigma Chemical, Mo., US) and 20% fresh heat-inactivated autologous serum were added to un-coated or -pre-coated microtiter plates followed by 100 μl of PBMC suspension (5×10^4 lymphocytes) in RPMI/2% HSA with peptides at the indicated concentrations. Lipoplysaccharide (LPS, Sigma Chemical Co, MO, US) was added at a final concentration of 0.05 ng/ml. […] All assay conditions were set up in triplicate wells. Supernatants (SNs) were harvested after 24 hrs and residual cells were removed by centrifugation in a refrigerated centrifuge (Beckman) at 2600×g for 5 minutes. SNs were frozen and stored at −70° C. IL-6 in cell culture SNs was measured by ELISA using the DuoSet® ELISA development kit for human IL-6 (R&D Systems Europe, Ltd., Abingdon, UK) following the manufacturer's recommended procedures. The lower limit of detection was 3.1 pg/ml. Samples were analysed as mean of triplicate wells.

A further test has as its system PBMCs. Nature of the test: PHA-induced proliferation of PBMC in the presence of albumin peptides and/or dHSA. Format: cell-based, human. The source says: Venous blood was drawn from healthy volunteers or from cancer patients in glass vacuum tubes with acid dextrose citrate solution A as anti-coagulant (Vacutainer, Becton Dickinson, Franklin Lakes, N.J.). Erythrocytes were removed by sedimentation on 2% dextran T500 solution (Amersham Pharmacia Biotech AB, Uppsala, Sweden) in 0.9% NaCl (this step was omitted for cultures with PHA-stimulation-see below). […] For cell cultures with PHA-stimulation, PBMC were washed in Hank's Balanced Salt Solution (HBSS) with 10% autologous plasma instead of RPMI/2% HSA. […] The cell suspension was stained with Turk's solution and the number of lymphocytes and monocytes in the PBMC preparation were counted in a hemocytometer. PBMCs were suspended in RPMI/2% HSA and the cell concentration adjusted to 5×10^5 lymphocytes/ml.
100 μl of the cell suspension were seeded into round-bottomed microtiter plates (Corning, N.Y., USA) followed by 100 μl of culture medium consisting of RPMI 1640 (Flow Laboratories, Irvine, Scotland) supplemented with 200 IU/ml Penicillin, 200 μg/ml Streptomycin (Flow laboratories) and 20% heat inactivated autologous serum. Phytohemagglutinin (PHA-P, Sigma Chemical Co, St. Louis, Mo.) at a final concentration of 5 or 10 μg/ml was then added.
All culture conditions were set up in triplicate wells. […] Mean values of disintegrations per minute (dpm) of triplicates were used for the calculations.

The mark [2] stands for this setting: Table 6 B, ASP-DHSA, molecular weight 3200-9000 Da.
Where [3] appears, read: Table 5 A, peptides generated by trypsin degradation of dHSA.
Setting [4] is: Table 5 B, trypsin peptides selected for synthesis.

As for “DRVTKCCTESLVNRRPCFSALEV [ASP-N fragment of dHSA]”, the Per cent adsobed in test [1] (ASP-DHSA) came to 0.87 Per cent.

In the case of “YSVVLL LRLAKTYETT LEKCCAAADP HECYAKVF (YSVVLLLRLAKTYETTLEKCCAAADPHECYAKVF; HOMO SAPIENS) [ASP-N fragment of dHSA]”, the Per cent adsorbed in test [1] (setting [2]) was found to be 1.00 Per cent.

For the substance “QNCELFEQLGEYK [414-426, tryptic peptide of dHSA]”, the Per cent adsorbed in test [1] (setting [3]) and in test [1] (setting [4]) was 0.20 Per cent throughout.

“DSISSKLKECCEKPLLEKSHCIAEVEN [ASP-N fragment of dHSA]” gave a Per cent adsobed in test [1] (ASP-DHSA) of 0.65 Per cent.

Regarding KLVNEVTEFAKT [peptide 2604], the “effect on LPS induced IL-6 production” value in the test with PBMC is recorded as “stimulatory”.

“AAFTECCQAADK [(K)AAFTECCQAADK (A), tryptic peptide of dHSA]”: the Per cent adsorbed in test [1] (setting [3]) is reported as 0.29 Per cent.

As for “VHTECCHGDLLECADDR [tryptic peptide of dHSA]”, in test [1] (setting [3]), the Per cent adsorbed turned out to be 0.13 Per cent.

Take “YICENQDSISSK [287-298, tryptic peptide of dHSA]”: in test [1] (setting [3]), the Per cent adsorbed is reported as 0.03 Per cent.

“RVTKC CTESLVNRRPCFSALEVDETYVPKEFNAETFTFHA (RVTKCCTESLVNRRPCFSALEVDETYVPKEFNAETFTFHA; HOMO SAPIENS) [ASP-N fragment of dHSA]”: in test [1] (setting [2]), the Per cent adsorbed was found to be 1.00 Per cent.

Take “RPCFSALEVDETYVPK [tryptic peptide of dHSA]”: the Per cent adsorbed in test [1] (setting [3]) amounted to 0.42 Per cent.

In turn, “VF LGMFLYEYARRHPDYSVVLLLRLAKTYETTLEKCCAAA (VFLGMFLYEYARRHPDYSVVLLLRLAKTYETTLEKCCAAA; HOMO SAPIENS) [ASP-N fragment of dHSA]” yielded a Per cent adsorbed in test [1] (setting [2]) of 1.00 Per cent.

As for “DDKETCFAEEGKKLVAASQAALGL [ASP-N fragment of dHSA]”, the Per cent adsobed in test [1] (ASP-DHSA) is on record as 1.00 Per cent.

In test [1] (ASP-DHSA), “DKLCTVATLRETYGEM [ASP-N fragment of dHSA]” gave a Per cent adsobed of 0.65 Per cent.

Substance “ETYGEMADCCAK [106-117, tryptic peptide of dHSA]” registered a Per cent adsorbed in test [1] (setting [3]) of -0.08 Per cent.

On to “KLCT VATLRETYGE MA DCCAKQEP ERNECFLQHK (KLCTVATLRETYGEMADCCAKQEPERNECFLEHK; HOMO SAPIENS) [ASP-N fragment of dHSA]”, for which the Per cent adsorbed in test [1] (setting [2]) is 1.00 Per cent.

With “NECFLQHK [(R)NECFLQHK (D), tryptic peptide of dHSA]”, the Per cent adsorbed in test [1] (setting [3]) is recorded as 0.22 Per cent.

In the case of “SISSKLKECCEKPLLEK SHClAEVEN DEMPA (SISSKLKECCEKPLLEKSHCIAEVENDEMPA; HOMO SAPIENS) [ASP-N fragment of dHSA]”, in test [1] (asparaginase degraded dHSA), the “binding to ACS” value is “contradictory results”.

In test [1] (setting [3]), “YKAAFTECCQAADK [tryptic peptide of dHSA]” displayed a Per cent adsorbed of -0.37 Per cent.

For the substance “QEPERNECFLQHK [(K)QEPERNECFLQHK (D), tryptic peptide of dHSA]”, the Per cent adsorbed in test [1] (setting [3]) was 0.26 Per cent and 0.18 Per cent.

Consider “CCAAADPHECYAK [384-396, tryptic peptide of dHSA]”, for which, in test [1] (setting [3]), the Per cent adsorbed is given as 0.32 Per cent.

In the case of NEETFLKKYLYE [peptide 2605], the “effect on PHA induced proliferation of PBMCs” value was “biphasic response pattern” in the test on PBMCs (PBMCs from K92, three peptide concentrations); “inhibitory or stimulatory effects in one control each and one patient each” in the test with PBMCs (PHA 5 μg/ml, peptides 10 μg/ml, 5 healthy controls and 4 patients); “clear stimulatory activity” in the test on PBMCs (patient P46, lowest peptide concentration). For the same substance, in the test on PBMCs (PBMCs from two healthy controls, two PHA concentrations), the “effect on dHSA modulated PHA stimulated proliferation” value is recorded as “inhibited the stimulatory activity of dHSA”. Besides, the “effect on dHSA enhanced PHA induced proliferation” value in the test with PBMCs (peptides 10 μg/ml, lower dHSA concentrations) was “stimulated the proliferative rate”; in the test on PBMCs (peptides 10 μg/ml, two highest dHSA concentrations) it was “significantly inhibited the stimulatory activity”.

With “DETYVPKEFNAETFTHA [ASP-N fragment of dHSA]”, the Per cent adsobed in test [1] (ASP-DHSA) came to 0.86 Per cent.

“ICTLSEKERQIKKQ TALVELVKHK PKATKEQLKA VM (ICTLSEKERQIKKQTALVELVKHKPKATKEQLKAVM) [ASP-N fragment of dHSA]” returned a Per cent adsorbed in test [1] (setting [2]) of 1.00 Per cent.

“VPQVSTPTLVEVSR [tryptic peptide of dHSA]”: the Per cent adsorbed in test [1] (setting [3]) is listed as 0.59 Per cent.

Consider “FKDLGEENFK [(R)FKDLGEENFK (A), tryptic peptide of dHSA]”, for which the Per cent adsorbed in test [1] (setting [3]) stood at 0.08 Per cent.

Substance “LKECCEKPLLEK [299-310, tryptic peptide of dHSA]” yielded a Per cent adsorbed in test [1] (setting [3]) of 0.36 Per cent.

In test [1] (setting [2]), “LAKYICE NQDSISSKLK ECCEKPLLEK SHCIAEVEN (LAKYICENQDSISSKLKECCEKPLLEKSHCIAEVEN) [ASP-N fragment of dHSA]” returned a Per cent adsorbed of 1.00 Per cent.

Turning to “YLSVVLNQLCVLHEK TPVS DRVTKC CTESLVNRRP CFSALEV”, the Per cent adsorbed in test [1] (setting [2]) was found to be 0.37 Per cent.

In turn, “LGE ENFKALVLIAFAQYLQQCPFEDHVKLVNEVTEFAKTCVA (LGEENFKALVLIAFAQYLQQCPFEDHVKLVNEVTEFAKTCVA; HOMO SAPIENS) [ASP-N fragment of dHSA]” displayed a Per cent adsorbed in test [1] (setting [2]) of 1.00 Per cent.

In test [1] (setting [3]), “SLHTLFGDK [089-097, tryptic peptide of dHSA]” gave a Per cent adsorbed of 0.36 Per cent.

With “KYLYEIAR [(K)KYLYEIAR (R), tryptic peptide of dHSA]”, the Per cent adsorbed in test [1] (setting [3]) and in test [1] (setting [4]) was 0.71 Per cent throughout.

“DHVKLVNEVTEFAKTCVA [ASP-N fragment of dHSA]” displayed a Per cent adsobed in test [1] (ASP-DHSA) of 1.00 Per cent.

In test [1] (setting [3]), “AVMDDFAAFVEK [570-581, tryptic peptide of dHSA]” yielded a Per cent adsorbed of 0.23 Per cent.
